What was measured:
Format in all cases: cell-based
AGTR1 = target: T1, AGTR1 (Homo sapiens, UniProt P30556); experiment: DiscoveRx β-arrestin2 recruitment assay (enzyme complementation, Pathunter CHO-K1 AGTR1 β-arrestin cell line); details: DiscoveRx β-arrestin2 recruitment
T1 construct: host or cells: Pathunter CHO-K1 AGTR1 β-arrestin cell line (CHO-K1)
T1 sequence (P30556 1-359): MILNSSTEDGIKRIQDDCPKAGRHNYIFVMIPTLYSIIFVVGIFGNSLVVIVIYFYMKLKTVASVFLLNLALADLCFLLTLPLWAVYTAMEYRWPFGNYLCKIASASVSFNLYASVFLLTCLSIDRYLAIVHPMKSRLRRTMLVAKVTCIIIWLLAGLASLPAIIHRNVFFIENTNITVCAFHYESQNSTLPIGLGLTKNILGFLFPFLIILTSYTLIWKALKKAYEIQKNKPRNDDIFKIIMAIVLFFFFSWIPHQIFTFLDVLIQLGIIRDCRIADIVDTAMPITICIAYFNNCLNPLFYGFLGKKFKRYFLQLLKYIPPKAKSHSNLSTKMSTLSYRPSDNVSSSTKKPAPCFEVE
In short: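 CHO-K1 cells expressing AGTR1 with β-arrestin2 enzyme-complementation reporter, plated 14-16 h ahead in 1% serum medium, then exposed to compounds for 90 min at 37° C. Chemiluminescence read after 1 h detection. EC50 (agonist) or IC50 (antagonist) from 4-parameter logistic fit; activity as percentage of All maximal effect.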

hAT1R [1] = target: T2, hAT1R (Homo sapiens, UniProt P30556); experiment: BRET β-arrestin2 biosensor assay, higher receptor expression (hAT1R 5 ng/well), HEK293 cells; details: for EC50: High AT1R Expression
T2 sequence (P30556 1-359): T1 sequence (P30556 1-359)

hAT1R [2] = target: T2, hAT1R; experiment: BRET Gq biosensor assay, agonist response, HEK293 cells; details: section of the 42nd table directly before the BRET P63 section
In short: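 HEK293 cells co-transfected with signal-peptide-optimized hAT1R plus Gαq-Rluc, Gβ1 and GFP-Gγ1, assayed 48 h later in Tyrode's buffer pH 7.4. Coelenterazine (2 μM final) added, then compound; BRET2 (515/410 nm) read after 5 min at room temperature. EC50 by 4-parameter fit, normalized to unstimulated (0%) and maximal AngII (100%).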

Row | SMILES | DiscoveRx β-arrestin2 Ymax (%) (AGTR1) | EC50 (AGTR1) [nM] | BRET β-Arrestin2 High AT1R Expression Ymax (%) (hAT1R [1]) | EC50 (hAT1R [1]) [nM] | EC50 (hAT1R [2]) [nM] | DiscoveRx β-arrestin2 Ymax (%) (AGTR1; maximal response)
1 | CCCCC(=O)N(Cc1ccc(-c2cc(-c3cnn(C)c3)ccc2-c2nn[nH]n2)cc1)[C@H](C(=O)O)C(C)C [Example 442] | 10.9 | 105 | 17.2 | 303 | > 100000 | –
2 | CCCCc1ncc(C(=O)N2CCCC2)n1Cc1ccc(-c2cc(-c3ccccc3)ccc2-c2nn[nH]n2)cc1 [Example 347] | – | 57.2 | 48.8 | 172 | 242 | 26.8
3 | CCCCC(=O)N(Cc1ccc(-c2cc(Oc3ccccc3)ccc2-c2nn[nH]n2)cc1)[C@H](C(=O)O)C(C)C [Example 435, (S)-3-Methyl-2-(N-((5′-phenoxy-2′-(2H-tetrazol-5-yl)-[1,1′-biphenyl]-4-yl)methyl)pentanamido)butanoic acid] | 19.1 | 1410 | 12.3 | 305 | > 100000 | –
4 | CCCCC(=O)N(Cc1ccc(-c2cc(-c3ccccc3)ccc2-c2noc(=O)[nH]2)cc1)C1(C(=O)O)CCCCC1 [Example 281] | – | 41.6 | 93.1 | 10.5 | 232 | 47.4
5 | CCCCc1ncc(C(=O)O)n1Cc1ccc(-c2cc(-c3ccccc3)ccc2C(=O)O)cc1 [Example 415] | – | 111 | 26.8 | 206 | 487 | 29.3
6 | CCCCC(=O)N(Cc1ccc(-c2cc(-c3ccccc3)ccc2-c2nn[nH]n2)cc1)C1(C(=O)O)CCC1 [Example 270] | – | 6550 | 74.3 | 12900 | 4680 | 28.6
7 | CCCCc1ncc(C(=O)NCc2nccs2)n1Cc1ccc(-c2cc(-c3ccccc3)ccc2-c2nn[nH]n2)cc1 [Example 356] | – | 27.3 | 84.7 | 17.7 | 36.7 | 41.5
8 | CCCCC(=O)N(Cc1ccc(-c2cc(-c3ccccc3)ccc2-c2noc(=O)[nH]2)nc1)[C@H](C(=O)O)C(C)C [Example 434, (S)-3-Methyl-2-(N-((6-(4-(5-oxo-4,5-dihydro-1,2,4-oxadiazol-3-yl)-[1,1′-biphenyl]-3-yl)pyridin-3-yl)methyl)pentanamido)butanoic acid 2,2,2-trifluoroacetate] | 40.9 | 72 | 96.6 | 316 | 1280 | –
9 | CCCCC(=O)N(Cc1ccc(-c2cc(-c3ccccc3)ccc2-c2nn[nH]n2)cn1)C1(C(=O)O)CCCCC1 [Example 274] | – | 251 | 82.5 | 279 | 1490 | 37.5
10 | CCCCC(=O)N(Cc1ccc(-c2cc(Oc3cccc(OC(F)(F)F)c3)ccc2-c2nn[nH]n2)cc1)[C@H](C(=O)O)C(C)C [Example 437] | 26.4 | 3920 | 16.4 | 168 | > 100000 | –
11 | CCCCc1ncc(C(=O)N(C)C)n1Cc1ccc(-c2cc(-c3ccccc3)ccc2-c2nn[nH]n2)cc1 [Example 383, 1-((6′-(2H-tetrazol-5-yl)-[1,1′:3′,1″-terphenyl]-4-yl)methyl)-2-butyl-N,N-dimethyl-1H-imidazole-5-carboxamide] | – | 70.4 | 66.3 | 309 | 7740 | 22.8
12 | CCCCc1nc(Cl)c(C(=O)O)n1Cc1ccc(-c2cc(N3CC(C)(C)c4ccccc43)ccc2-c2noc(=O)[nH]2)cc1 [Example 405, 2-butyl-4-chloro-1-((5′-(3,3-dimethylindolin-1-yl)-2′-(5-oxo-4,5-dihydro-1,2,4-oxadiazol-3-yl)-[1,1′-biphenyl]-4-yl)methyl)-1H-imidazole-5-carboxylic acid] | – | 57.5 | 95.8 | 42 | 492 | 32.8
13 | CCCCC(=O)N(Cc1ccc(-c2cc(-c3ccc(NC(C)=O)cc3)ccc2-c2nn[nH]n2)cc1)[C@H](C(=O)O)C(C)C [Example 440] | 13.6 | 241 | 50.1 | 28300 | 582 | –
14 | CCCCC(=O)N(Cc1ccc(-c2cc(-c3ccccc3)ccc2-c2nn[nH]n2)cc1)C1(C(=O)O)CCCCC1 [Example 272] | – | 16.5 | 84.0 | 15.2 | > 100000 | 43.5
15 | CCCc1nc(CC)c(C(=O)NCC(F)(F)F)n1Cc1ccc(-c2cc(-c3ccccc3)ccc2-c2nn[nH]n2)cc1 [Example 397, 1-((6′-(2H-tetrazol-5-yl)-[1,1′:3′,1″-terphenyl]-4-yl)methyl)-4-ethyl-2-propyl-N-(2,2,2-trifluoroethyl)-1H-imidazole-5-carboxamide] | – | 78.2 | 87.9 | 80.9 | 124 | 46.5
16 | CCOc1nc2cccc(C(=O)O)c2n1Cc1ccc(-c2cc(-c3ccc(C(=O)N(C)C)cc3)ccc2C(=O)O)cc1 [Example 320] | – | 40.7 | 86.8 | 173 | > 100000 | 55.7
17 | CCCCc1ncc(C(=O)N2CCC2)n1Cc1ccc(-c2cc(-c3ccccc3)ccc2-c2nn[nH]n2)cc1 [Example 370] | – | 16.3 | 85.5 | 45.3 | 71.9 | 26.8
18 | CCCCc1ncc(C(=O)NCc2ccccn2)n1Cc1ccc(-c2cc(-c3ccccc3)ccc2-c2nn[nH]n2)cc1 [Example 371] | – | 5.7 | 94.4 | 11 | > 1000 | 40.8
19 | CCCCc1ncc(C(=O)NCC(F)F)n1Cc1ccc(-c2cc(-c3ccccc3)ccc2-c2nn[nH]n2)cc1 [Example 364] | – | 23.2 | 79.4 | 50.5 | 119 | 30.3
20 | CCCCc1ncc(C(=O)Nc2ccncc2C)n1Cc1ccc(-c2cc(-c3ccccc3)ccc2-c2nn[nH]n2)cc1 [Example 375] | – | 89.7 | 55.7 | 89.4 | 273 | 35.8
21 | CCCCC(=O)N(Cc1ccc(-c2cc(-c3ccccc3)ccc2-c2nn[nH]n2)cc1)C(C)(C)C(=O)O [Example 268, 2-(N-((6′-(2H-Tetrazol-5-yl)-[1,1′:3′,1″-terphenyl]-4-yl)methyl)pentanamido)-2-methylpropanoic acid] | – | 628 | 73.8 | 1030 | 1090 | 39.8
